Here are results for ten molecules from US20090047246A1, “NOVEL INHIBITORS OF HEPATITIS C VIRUS REPLICATION” (InterMune, Inc., priority 2007, published 2009).

In one data set the test system is T1, NS4a surrogate peptide.
T1 sequence: KGSVVIVGRIILSGRK

The next data set concerns HCV NS3/4a protease. As to the kind of experiment: HCV NS3/4a protease activity, effect of additives on reaction rate (Assay Example 1). In kind it is biochemical, HCV genotype 1b-K2040. Particulars: base buffer 50 mM Tris-HCl pH 7.5, 15% glycerol; for Conclusion (effect of additive on NS3/4a protease reaction rate): 0.5 μM FRET substrate, additive at the concentrations tested. As to the method:
In order to identify reaction conditions that give high levels of HCV NS3/4a protease activity, several additives were analyzed to determine their effect on reaction rate. The base buffer used was 50 mM Tris-HCl, pH 7.5 containing 15% glycerol. The FRET-based assay substrate used (sequence: Ac-DE-Dap(QXL520)-EE-Abu-ψ-[COO]-AS-Cys(5-FAMsp)-NH2) was obtained from Anaspec, Inc. (San Jose, Calif.). The NS4a surrogate peptide used (KGSVVIVGRIILSGRK) was obtained from Midwest Biotech (Fishers, Ind.). The NS3 enzyme used was the benchmark wild-type full length enzyme derived from HCV genotype 1b-K2040. The reaction rate for the NS3 catalyzed hydrolysis of 0.5 μM substrate in base buffer was used as a reference.

For another data set, the target named is NS3 Helicase (Hepatitis C virus genotype 1b, UniProt P26663). As to the kind of experiment: Activity of NS3 Helicase in Presence of Detergent with or without LDAO (Table A). In kind it is biochemical. Here is the method:
In another embodiment, at least one detergent is added to a solution containing NS3 to improve the helicase activity. In some embodiments, the detergent is selected from the group consisting of LDAO, Tween 20, Triton X100, Pluronic F127, CHAPS, β-octyl glucoside, laurylmaltoside, N-lauroylsarcosine, and hexadecyltrimethylammonium bromide. In a preferred embodiment, LDAO is added. In a more preferred embodiment, at least one additional detergent in added to the solution containing NS3 and LDAO. In some embodiments, the additional detergent(s) is/are selected from the group consisting of Tween 20, Triton X100, Pluronic F127, CHAPS, β-octyl glucoside, laurylmaltoside, N-lauroylsarcosine, and hexadecyltrimethylammonium bromide. Table A represents the helicase activity of NS3 in the presence of LDAO and at least one additional detergent; and, in the absence of LDAO and the presence of at least one other detergent.

Setting [1] is: plus LDAO 0.6 mM, detergent 0.020%.
The mark [2] stands for this setting: plus LDAO 0.6 mM, detergent 0.020%, control = 100.
[3] abbreviates: plus LDAO 0.6 mM, detergent 0.075%.
Where [4] appears, read: plus LDAO 0.6 mM, detergent 0.075%, control = 100.

NS3 Helicase, sequence (P26663 1027-1657): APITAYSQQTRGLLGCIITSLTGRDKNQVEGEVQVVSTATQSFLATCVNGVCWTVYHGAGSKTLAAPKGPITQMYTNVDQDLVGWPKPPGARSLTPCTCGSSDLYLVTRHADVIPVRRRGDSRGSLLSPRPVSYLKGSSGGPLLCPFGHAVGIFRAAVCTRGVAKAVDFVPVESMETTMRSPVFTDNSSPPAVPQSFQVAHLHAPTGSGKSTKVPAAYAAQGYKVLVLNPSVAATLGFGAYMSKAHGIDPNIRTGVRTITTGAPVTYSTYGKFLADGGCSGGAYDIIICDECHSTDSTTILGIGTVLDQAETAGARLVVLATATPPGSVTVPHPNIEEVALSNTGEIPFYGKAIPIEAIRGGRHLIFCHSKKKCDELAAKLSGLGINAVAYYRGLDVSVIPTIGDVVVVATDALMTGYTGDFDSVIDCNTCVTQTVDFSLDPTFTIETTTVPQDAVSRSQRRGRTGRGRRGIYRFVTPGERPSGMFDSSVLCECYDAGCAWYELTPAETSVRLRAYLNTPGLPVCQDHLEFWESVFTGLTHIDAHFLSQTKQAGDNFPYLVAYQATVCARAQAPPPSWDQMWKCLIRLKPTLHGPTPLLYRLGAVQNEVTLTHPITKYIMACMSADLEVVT

Take “NS3 enzyme, benchmark wild-type full length enzyme derived from HCV genotype 1b-K2040”: the “NS3/4a protease activity (reaction rate of NS3 catalyzed hydrolysis of 0.5 µM FRET substrate)” value with NS4a surrogate peptide was “Best activity at 25 and 2500 µM”.
On to `O=C(O)CCP(CCC(=O)O)CCC(=O)O` [TCEP], for which the “Conclusion (effect of additive on NS3/4a protease reaction rate)” value (from here on “Conclusion”) in the data set with HCV NS3/4a protease is on record as “detrimental to activity”.
On the same count and under the same terms, for “KGSVVIVGRIILSGRK [NS4a peptide, "The NS4a surrogate peptide used (…) was obtained from Midwest Biotech", reference compound]” the value was “Best activity at 25 and 2500 μM”; for `[Cl-].[Na+]` [NaCl], “NaCl detrimental to activity”.
Turning to `C[C@H](CCC(=O)NCCC[N+](C)(C)CCCS(=O)(=O)[O-])[C@H]1CC[C@H]2[C@@H]3[C@H](O)C[C@@H]4C[C@H](O)CC[C@]4(C)[C@H]3C[C@H](O)[C@]12C` [CHAPS], the Slope on NS3 Helicase (setting [1]) is −0.77 mP/min; on NS3 Helicase (setting [3]), −1.16 mP/min. In addition, the Activity on NS3 Helicase (setting [2]) is 126%; at NS3 Helicase (setting [4]), 190%. Further, in the data set with HCV NS3/4a protease, the “Conclusion” value is “CHAPS at 2 mM increased activity”.
Take Triton X-100: in the data set with HCV NS3/4a protease, the “Conclusion” value is recorded as “Improvement in activity at 12 μM”.
On to `O[C@@H](CS)[C@@H](O)CS` [DTT], for which the “Conclusion” value with HCV NS3/4a protease was 10 and 30 mM DTT improve activity.
On to `CCCCCCCCCCCC[N+](C)(C)[O-]` [LDAO, lauryl (dimethyl)-amine oxide], for which the “Conclusion” value in the data set on HCV NS3/4a protease is “LDAO at 0.6 mM raised activity”. In the data set on HCV NS3/4a protease (LDAO at 0.6 mM), the “Increase of NS3/4a protease activity” value is reported as “significantly (~10-fold)”.
With Triton X100, the Activity came to 66% at NS3 Helicase (no LDAO, detergent 0.020%); 53% at NS3 Helicase (no LDAO, detergent 0.075%); 397% on NS3 Helicase (setting [2]); 313% at NS3 Helicase (setting [4]). Besides, the Slope is on record as −0.25 mP/min on NS3 Helicase (no LDAO, detergent 0.020%); −0.2 mP/min on NS3 Helicase (no LDAO, detergent 0.075%); −1.51 mP/min at NS3 Helicase (setting [1]); −1.19 mP/min at NS3 Helicase (setting [3]).
`CCCCCCCCCCCCO[C@@H]1O[C@H](CO)[C@@H](O[C@H]2O[C@H](CO)[C@@H](O)[C@H](O)[C@H]2O)[C@H](O)[C@H]1O` [laurylmaltoside]: the Slope was −0.8 mP/min at NS3 Helicase (plus LDAO 0.6 mM, detergent 0.05 mM) and −1.23 mP/min at NS3 Helicase (plus LDAO 0.6 mM, detergent 0.2 mM). Moreover, the Activity is listed as 131% on NS3 Helicase (plus LDAO 0.6 mM, detergent 0.05 mM, control = 100) and 202% on NS3 Helicase (plus LDAO 0.6 mM, detergent 0.2 mM, control = 100).
